Data from BigSolDB 2.1.

O=S(=O)([O-])c1cccc2c(S(=O)(=O)[O-])cccc12.[Na+].[Na+]
solubility (mole fraction)
Conditions	in acetone	in ethanol	in isopropanol	in methanol	in water
283.15 K	5.45e-05	0.000107	2.55e-05	0.00017	0.00572
293.15 K	5.92e-05	0.00011	5.68e-05	0.000221	0.00664
303.15 K	7.41e-05	0.00011	6.45e-05	0.000251	0.00784
313.15 K	9.49e-05	0.000147	8.74e-05	0.00027	0.00919
323.15 K	9.73e-05	0.000184	9.19e-05	0.00028	0.0106
